{
  "source": "paper PMC11233931",
  "about": "“Remodeling tumor‐associated macrophage for anti‐cancer effects by rational design of irreversible inhibition of mitogen‐activated protein kinase‐activated protein kinase 2” (MedComm, 2024)",
  "assay_in_all_cases": "Eurofins kinase selectivity profile against 380 other human recombinant kinases (Table S2)",
  "type_in_all_cases": "biochemical",
  "key": {"[1]": {"molecular_target": "T1, 380 human recombinant protein kinases (Homo sapiens, UniProt O00311)", "T1 construct": "purchased Eurofins (Celle Lévescault)", "T1 sequence (O00311 whole entry)": "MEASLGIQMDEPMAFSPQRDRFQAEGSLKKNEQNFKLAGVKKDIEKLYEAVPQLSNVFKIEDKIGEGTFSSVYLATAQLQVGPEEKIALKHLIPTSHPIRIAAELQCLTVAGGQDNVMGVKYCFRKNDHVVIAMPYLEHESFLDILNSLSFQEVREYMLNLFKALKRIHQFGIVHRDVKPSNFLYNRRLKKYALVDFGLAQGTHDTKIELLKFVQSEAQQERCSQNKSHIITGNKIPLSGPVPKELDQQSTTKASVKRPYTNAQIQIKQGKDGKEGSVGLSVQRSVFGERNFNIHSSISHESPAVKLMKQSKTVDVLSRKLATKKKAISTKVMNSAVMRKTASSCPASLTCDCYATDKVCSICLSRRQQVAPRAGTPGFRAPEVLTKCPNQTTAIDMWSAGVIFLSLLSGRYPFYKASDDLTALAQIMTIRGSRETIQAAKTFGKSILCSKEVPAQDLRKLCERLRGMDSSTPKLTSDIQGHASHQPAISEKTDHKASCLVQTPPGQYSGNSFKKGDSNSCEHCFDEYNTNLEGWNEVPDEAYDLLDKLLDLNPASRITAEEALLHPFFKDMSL", "details": "Cdc7/cyclinB1(h), read-out: Inhibition rate", "in_short": "(§1)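 The inhibitor was sent to a contract lab and screened at various concentrations against 380 human recombinant protein kinases. This served as a counter-screen for MK2 specificity.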"}, "[2]": {"molecular_target": "T2, 380 human recombinant protein kinases (Homo sapiens, UniProt P22607)", "T2 construct": "purchased Eurofins (Celle Lévescault)", "details": "FGFR3(h), read-out: Inhibition rate", "in_short": "as §1"}, "[3]": {"molecular_target": "T3, 380 human recombinant protein kinases (Homo sapiens, UniProt P35968)", "T3 construct": "purchased Eurofins (Celle Lévescault)", "T3 sequence (P35968 20-1356)": "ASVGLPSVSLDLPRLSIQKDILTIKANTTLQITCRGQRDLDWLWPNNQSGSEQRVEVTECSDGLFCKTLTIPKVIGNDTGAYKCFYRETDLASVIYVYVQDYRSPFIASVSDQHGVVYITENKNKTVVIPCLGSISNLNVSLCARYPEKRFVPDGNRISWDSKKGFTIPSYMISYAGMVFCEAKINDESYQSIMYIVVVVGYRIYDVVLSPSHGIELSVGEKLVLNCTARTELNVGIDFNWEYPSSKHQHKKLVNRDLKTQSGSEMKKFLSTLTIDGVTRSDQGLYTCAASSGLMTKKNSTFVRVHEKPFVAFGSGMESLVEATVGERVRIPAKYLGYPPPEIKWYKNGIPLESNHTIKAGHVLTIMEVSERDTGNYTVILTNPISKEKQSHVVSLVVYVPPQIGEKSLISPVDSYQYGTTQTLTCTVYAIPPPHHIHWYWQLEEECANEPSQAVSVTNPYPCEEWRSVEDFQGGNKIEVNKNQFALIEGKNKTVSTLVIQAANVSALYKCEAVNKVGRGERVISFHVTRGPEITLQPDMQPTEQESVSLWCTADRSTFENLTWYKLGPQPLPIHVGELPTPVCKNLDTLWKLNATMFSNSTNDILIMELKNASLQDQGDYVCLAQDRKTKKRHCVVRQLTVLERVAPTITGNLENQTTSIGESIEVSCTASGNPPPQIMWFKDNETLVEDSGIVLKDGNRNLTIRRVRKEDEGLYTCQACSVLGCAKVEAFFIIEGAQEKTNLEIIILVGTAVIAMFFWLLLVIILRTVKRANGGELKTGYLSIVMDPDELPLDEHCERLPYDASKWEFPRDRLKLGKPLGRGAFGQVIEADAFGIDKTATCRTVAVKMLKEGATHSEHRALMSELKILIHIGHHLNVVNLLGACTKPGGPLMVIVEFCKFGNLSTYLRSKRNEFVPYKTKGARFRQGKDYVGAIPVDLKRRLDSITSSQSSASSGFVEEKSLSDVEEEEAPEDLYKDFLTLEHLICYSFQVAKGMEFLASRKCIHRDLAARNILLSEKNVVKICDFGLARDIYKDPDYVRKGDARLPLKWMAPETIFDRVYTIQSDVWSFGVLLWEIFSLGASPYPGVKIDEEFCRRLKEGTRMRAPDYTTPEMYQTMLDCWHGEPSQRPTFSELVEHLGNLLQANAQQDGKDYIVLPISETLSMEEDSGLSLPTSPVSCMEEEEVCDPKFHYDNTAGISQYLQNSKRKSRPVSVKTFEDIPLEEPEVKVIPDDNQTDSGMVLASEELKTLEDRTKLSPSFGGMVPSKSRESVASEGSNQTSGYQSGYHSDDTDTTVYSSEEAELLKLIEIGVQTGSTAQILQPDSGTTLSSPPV", "details": "KDR(h), read-out: Inhibition rate", "in_short": "as §1"}, "[4]": {"molecular_target": "T4, 380 human recombinant protein kinases (Homo sapiens, UniProt Q13237)", "T4 construct": "purchased Eurofins (Celle Lévescault)", "T4 sequence (Q13237 1-762)": "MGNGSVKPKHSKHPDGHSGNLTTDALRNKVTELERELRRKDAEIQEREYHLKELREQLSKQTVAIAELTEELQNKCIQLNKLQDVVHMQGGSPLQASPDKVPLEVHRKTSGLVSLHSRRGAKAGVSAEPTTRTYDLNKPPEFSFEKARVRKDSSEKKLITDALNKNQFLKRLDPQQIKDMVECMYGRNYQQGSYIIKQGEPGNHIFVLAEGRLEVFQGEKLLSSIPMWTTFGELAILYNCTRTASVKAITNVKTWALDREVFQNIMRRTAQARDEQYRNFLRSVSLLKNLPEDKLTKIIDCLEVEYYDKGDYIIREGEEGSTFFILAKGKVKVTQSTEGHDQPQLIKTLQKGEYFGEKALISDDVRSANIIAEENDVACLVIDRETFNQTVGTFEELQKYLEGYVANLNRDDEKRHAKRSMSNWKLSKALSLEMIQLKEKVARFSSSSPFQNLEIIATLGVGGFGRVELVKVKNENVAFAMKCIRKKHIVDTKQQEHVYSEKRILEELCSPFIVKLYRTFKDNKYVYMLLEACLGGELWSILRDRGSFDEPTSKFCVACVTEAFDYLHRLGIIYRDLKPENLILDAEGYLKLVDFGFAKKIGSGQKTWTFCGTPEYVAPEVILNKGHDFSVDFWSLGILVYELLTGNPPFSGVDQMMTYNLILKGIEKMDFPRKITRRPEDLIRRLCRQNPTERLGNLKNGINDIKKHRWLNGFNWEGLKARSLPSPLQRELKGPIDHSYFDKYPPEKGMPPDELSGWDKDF", "details": "PRKG2(h), read-out: Inhibition rate", "in_short": "as §1"}, "[5]": {"molecular_target": "T5, 380 human recombinant protein kinases (Homo sapiens, UniProt Q15139)", "T5 construct": "purchased Eurofins (Celle Lévescault)", "T5 sequence (Q15139 1-912)": "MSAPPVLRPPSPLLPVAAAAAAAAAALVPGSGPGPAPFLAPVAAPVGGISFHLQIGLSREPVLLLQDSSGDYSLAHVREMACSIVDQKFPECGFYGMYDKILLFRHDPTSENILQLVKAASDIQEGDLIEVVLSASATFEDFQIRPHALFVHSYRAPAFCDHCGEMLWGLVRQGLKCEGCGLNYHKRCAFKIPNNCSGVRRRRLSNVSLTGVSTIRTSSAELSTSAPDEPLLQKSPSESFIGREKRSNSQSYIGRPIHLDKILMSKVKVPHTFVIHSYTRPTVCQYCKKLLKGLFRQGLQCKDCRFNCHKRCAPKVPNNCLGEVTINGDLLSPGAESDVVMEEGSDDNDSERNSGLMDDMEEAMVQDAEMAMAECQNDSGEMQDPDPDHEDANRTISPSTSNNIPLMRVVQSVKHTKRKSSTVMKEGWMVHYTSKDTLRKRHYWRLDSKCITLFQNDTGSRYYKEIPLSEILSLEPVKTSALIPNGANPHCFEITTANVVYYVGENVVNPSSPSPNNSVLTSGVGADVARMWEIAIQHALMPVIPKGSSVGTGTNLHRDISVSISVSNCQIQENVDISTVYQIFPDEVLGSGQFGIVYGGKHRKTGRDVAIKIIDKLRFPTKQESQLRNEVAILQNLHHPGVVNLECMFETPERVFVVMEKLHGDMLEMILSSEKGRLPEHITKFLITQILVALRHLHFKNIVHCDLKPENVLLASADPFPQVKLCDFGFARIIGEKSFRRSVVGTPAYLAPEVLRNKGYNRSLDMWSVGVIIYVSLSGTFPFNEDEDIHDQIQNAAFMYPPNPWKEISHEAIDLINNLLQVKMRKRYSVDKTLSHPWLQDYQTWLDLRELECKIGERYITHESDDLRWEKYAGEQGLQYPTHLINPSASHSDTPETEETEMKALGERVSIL", "details": "PKCμ(h), read-out: Inhibition rate", "in_short": "as §1"}, "[6]": {"molecular_target": "T6, 380 human recombinant protein kinases (Homo sapiens, UniProt Q86UX6)", "T6 construct": "purchased Eurofins (Celle Lévescault)", "T6 sequence (Q86UX6 whole entry)": "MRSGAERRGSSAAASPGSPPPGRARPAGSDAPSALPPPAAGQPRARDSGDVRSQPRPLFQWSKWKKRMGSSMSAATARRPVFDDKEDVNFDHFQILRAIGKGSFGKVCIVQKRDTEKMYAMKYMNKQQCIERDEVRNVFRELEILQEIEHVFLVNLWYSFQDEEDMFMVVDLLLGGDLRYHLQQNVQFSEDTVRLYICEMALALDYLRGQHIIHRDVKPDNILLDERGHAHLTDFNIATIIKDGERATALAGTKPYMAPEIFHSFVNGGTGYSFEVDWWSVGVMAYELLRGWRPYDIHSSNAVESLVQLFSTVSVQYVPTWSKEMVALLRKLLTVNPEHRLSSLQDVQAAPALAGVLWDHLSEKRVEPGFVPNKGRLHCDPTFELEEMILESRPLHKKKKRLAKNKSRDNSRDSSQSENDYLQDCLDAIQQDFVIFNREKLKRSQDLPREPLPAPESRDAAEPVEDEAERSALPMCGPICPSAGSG", "details": "STK32C(h), read-out: Inhibition rate (%)", "in_short": "as §1"}, "[7]": {"molecular_target": "T7, 380 human recombinant protein kinases (Homo sapiens, UniProt Q9H4A3)", "T7 construct": "purchased Eurofins (Celle Lévescault)", "T7 sequence (Q9H4A3 whole entry)": "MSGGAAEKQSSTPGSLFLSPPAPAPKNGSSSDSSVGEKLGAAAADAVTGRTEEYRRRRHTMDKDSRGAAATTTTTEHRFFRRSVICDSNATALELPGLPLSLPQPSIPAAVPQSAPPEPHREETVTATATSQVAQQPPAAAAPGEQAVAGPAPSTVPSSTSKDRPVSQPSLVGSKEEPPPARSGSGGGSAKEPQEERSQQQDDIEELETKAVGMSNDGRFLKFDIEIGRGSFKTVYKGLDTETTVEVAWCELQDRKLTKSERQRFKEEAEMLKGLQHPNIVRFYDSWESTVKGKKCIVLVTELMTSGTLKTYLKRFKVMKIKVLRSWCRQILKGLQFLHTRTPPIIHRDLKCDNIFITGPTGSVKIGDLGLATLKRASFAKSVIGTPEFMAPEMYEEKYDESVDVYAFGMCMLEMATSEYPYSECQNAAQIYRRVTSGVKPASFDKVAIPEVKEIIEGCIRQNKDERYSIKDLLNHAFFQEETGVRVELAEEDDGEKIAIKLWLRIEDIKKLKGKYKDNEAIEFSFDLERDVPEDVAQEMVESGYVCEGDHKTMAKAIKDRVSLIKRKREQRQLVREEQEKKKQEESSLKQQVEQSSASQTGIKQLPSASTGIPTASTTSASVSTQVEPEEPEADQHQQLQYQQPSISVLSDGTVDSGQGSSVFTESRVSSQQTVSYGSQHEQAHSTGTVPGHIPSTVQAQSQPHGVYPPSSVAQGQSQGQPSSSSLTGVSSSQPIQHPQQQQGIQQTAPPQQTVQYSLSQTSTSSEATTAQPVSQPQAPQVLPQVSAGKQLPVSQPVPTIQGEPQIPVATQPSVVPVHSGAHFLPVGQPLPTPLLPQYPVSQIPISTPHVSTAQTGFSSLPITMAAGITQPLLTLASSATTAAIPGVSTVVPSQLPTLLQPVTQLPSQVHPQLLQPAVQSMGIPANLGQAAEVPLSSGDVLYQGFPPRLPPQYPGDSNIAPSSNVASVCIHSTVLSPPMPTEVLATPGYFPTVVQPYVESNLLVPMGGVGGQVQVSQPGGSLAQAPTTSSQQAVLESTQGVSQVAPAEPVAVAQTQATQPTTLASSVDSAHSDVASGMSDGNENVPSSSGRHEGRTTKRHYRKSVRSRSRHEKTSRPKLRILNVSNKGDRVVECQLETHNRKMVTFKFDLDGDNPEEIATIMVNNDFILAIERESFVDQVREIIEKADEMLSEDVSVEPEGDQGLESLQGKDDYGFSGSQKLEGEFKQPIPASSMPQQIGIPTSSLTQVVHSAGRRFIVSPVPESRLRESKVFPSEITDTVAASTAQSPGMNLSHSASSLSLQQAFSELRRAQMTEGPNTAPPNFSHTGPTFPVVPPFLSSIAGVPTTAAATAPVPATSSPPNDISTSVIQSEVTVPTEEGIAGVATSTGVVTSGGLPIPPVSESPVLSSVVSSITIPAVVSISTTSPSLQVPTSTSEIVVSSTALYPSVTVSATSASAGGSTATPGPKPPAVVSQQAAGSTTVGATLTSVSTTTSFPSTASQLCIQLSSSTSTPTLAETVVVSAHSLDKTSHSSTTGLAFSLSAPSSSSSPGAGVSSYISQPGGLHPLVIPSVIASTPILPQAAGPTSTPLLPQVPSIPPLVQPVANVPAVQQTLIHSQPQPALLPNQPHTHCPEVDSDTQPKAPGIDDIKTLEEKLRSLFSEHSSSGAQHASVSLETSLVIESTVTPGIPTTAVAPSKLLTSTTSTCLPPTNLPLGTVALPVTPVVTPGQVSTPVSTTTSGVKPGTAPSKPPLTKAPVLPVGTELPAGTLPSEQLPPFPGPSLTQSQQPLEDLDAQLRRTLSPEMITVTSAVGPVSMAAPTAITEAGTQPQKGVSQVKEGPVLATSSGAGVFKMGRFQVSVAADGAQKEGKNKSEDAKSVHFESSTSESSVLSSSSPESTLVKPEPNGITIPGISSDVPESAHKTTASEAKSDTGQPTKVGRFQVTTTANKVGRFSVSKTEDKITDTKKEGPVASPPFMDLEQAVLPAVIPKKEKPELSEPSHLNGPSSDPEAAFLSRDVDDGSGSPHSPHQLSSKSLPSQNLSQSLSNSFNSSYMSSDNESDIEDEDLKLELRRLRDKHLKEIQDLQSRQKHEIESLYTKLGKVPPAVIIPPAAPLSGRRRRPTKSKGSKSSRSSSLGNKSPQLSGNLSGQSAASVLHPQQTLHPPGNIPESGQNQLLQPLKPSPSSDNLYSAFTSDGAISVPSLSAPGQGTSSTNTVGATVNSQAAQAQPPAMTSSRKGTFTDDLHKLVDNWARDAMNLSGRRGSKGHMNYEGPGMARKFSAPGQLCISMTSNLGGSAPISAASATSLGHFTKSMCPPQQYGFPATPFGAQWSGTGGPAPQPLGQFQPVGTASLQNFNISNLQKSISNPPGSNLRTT", "details": "WNK1(h), read-out: Inhibition rate (%)", "in_short": "as §1"}, "[8]": {"molecular_target": "T8, 380 human recombinant protein kinases (Homo sapiens, UniProt Q9UKE5)", "T8 construct": "purchased Eurofins (Celle Lévescault)", "details": "TNIK(h), read-out: Inhibition rate (%)", "in_short": "as §1"}},
  "data": [
    {"compound": "C=CC(=O)Nc1cc(-c2cc(-c3cc4c([nH]3)CCNC4=O)ccn2)ccc1OC(F)(F)F", "note": "[compound 11]", "values": [
      {"measurement": "inhibition at 0.01 µM", "setting": "[1]; 10 nM", "result": 8, "unit": "%"},
      {"measurement": "inhibition at 0.1 µM", "setting": "[1]; 100 nM", "result": 16, "unit": "%"},
      {"measurement": "inhibition at 1 µM", "setting": "[1]; 1000 nM", "result": 22, "unit": "%"},
      {"measurement": "inhibition at 0.01 µM", "setting": "[2]; 10 nM", "result": 2, "unit": "%"},
      {"measurement": "inhibition at 0.1 µM", "setting": "[2]; 100 nM", "result": 9, "unit": "%"},
      {"measurement": "inhibition at 1 µM", "setting": "[2]; 1000 nM", "result": 0, "unit": "%"},
      {"measurement": "inhibition at 0.01 µM", "setting": "[3]; 10 nM", "result": 4, "unit": "%"},
      {"measurement": "inhibition at 0.1 µM", "setting": "[3]; 100 nM", "result": 5, "unit": "%"},
      {"measurement": "inhibition at 1 µM", "setting": "[3]; 1000 nM", "result": 31, "unit": "%"},
      {"measurement": "inhibition at 0.01 µM", "setting": "[4]; 10 nM", "result": 7, "unit": "%"},
      {"measurement": "inhibition at 0.1 µM", "setting": "[4]; 100 nM", "result": 19, "unit": "%"},
      {"measurement": "inhibition at 1 µM", "setting": "[4]; 1000 nM", "result": 35, "unit": "%"},
      {"measurement": "inhibition at 0.01 µM", "setting": "[5]; 10 nM", "result": -6, "unit": "%"},
      {"measurement": "inhibition at 0.1 µM", "setting": "[5]; 100 nM", "result": 13, "unit": "%"},
      {"measurement": "inhibition at 1 µM", "setting": "[5]; 1000 nM", "result": 45, "unit": "%"},
      {"measurement": "inhibition at 0.01 µM", "setting": "[6]; 10 nM", "result": 0, "unit": "%"},
      {"measurement": "inhibition at 0.1 µM", "setting": "[6]; 100 nM", "result": 4, "unit": "%"},
      {"measurement": "inhibition at 1 µM", "setting": "[6]; 1000 nM", "result": 1, "unit": "%"},
      {"measurement": "inhibition at 0.01 µM", "setting": "[7]; 10 nM", "result": 6, "unit": "%"},
      {"measurement": "inhibition at 0.1 µM", "setting": "[7]; 100 nM", "result": 2, "unit": "%"},
      {"measurement": "inhibition at 1 µM", "setting": "[7]; 1000 nM", "result": 4, "unit": "%"},
      {"measurement": "inhibition at 0.01 µM", "setting": "[8]; 10 nM", "result": -12, "unit": "%"},
      {"measurement": "inhibition at 0.1 µM", "setting": "[8]; 100 nM", "result": 9, "unit": "%"},
      {"measurement": "inhibition at 1 µM", "setting": "[8]; 1000 nM", "result": 42, "unit": "%"}
    ]}
  ]
}
